Source: ChEMBL document CHEMBL1201862, “PubChem BioAssay data set” (2004)
The source made the active and inactive calls.

Legend:
[1] = target: T1, Short transient receptor potential channel 4 (Mus musculus, UniProt Q9QUQ5); experiment: block of DAMGO-driven TRPC4 calcium entry – cell-based, HEK293 TRPC4/mu-opioid, Fluo-4 calcium, dose response (AID 434942); format: functional;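 note: potency of inhibitors blocking the TRPC4 calcium response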
T1 sequence (Q9QUQ5 whole entry): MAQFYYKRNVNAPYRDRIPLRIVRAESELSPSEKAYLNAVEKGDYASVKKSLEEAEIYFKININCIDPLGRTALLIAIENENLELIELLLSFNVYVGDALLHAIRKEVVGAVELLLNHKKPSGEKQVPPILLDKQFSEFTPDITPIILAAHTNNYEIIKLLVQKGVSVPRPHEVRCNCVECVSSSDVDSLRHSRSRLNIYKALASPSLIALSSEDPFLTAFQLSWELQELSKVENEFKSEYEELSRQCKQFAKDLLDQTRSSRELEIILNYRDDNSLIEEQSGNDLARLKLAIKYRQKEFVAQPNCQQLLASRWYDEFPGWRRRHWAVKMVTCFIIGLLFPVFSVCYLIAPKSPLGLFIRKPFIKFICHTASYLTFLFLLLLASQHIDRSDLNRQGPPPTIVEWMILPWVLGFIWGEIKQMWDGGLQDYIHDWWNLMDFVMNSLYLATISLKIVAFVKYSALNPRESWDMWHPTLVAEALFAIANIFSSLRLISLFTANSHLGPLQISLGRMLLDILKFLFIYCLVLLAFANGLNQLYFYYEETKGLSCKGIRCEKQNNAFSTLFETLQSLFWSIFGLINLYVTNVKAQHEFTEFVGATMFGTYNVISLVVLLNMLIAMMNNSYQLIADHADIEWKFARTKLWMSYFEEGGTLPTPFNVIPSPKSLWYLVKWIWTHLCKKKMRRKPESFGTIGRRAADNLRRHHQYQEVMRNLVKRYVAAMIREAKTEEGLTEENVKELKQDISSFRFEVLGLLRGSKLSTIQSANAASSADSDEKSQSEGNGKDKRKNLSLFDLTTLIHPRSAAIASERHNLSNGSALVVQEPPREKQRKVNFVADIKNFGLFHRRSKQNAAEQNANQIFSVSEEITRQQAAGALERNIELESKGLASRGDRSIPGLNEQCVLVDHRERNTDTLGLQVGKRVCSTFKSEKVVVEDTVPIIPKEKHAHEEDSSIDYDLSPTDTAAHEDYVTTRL

[2] = target: T2, Coagulation factor XII (Homo sapiens, UniProt P00748); format: functional;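 note: activated factor XIIa alpha cleaving a fluorogenic AMC peptide substrate; inhibitor potency from loss of enzyme activity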
T2 sequence (P00748 whole entry): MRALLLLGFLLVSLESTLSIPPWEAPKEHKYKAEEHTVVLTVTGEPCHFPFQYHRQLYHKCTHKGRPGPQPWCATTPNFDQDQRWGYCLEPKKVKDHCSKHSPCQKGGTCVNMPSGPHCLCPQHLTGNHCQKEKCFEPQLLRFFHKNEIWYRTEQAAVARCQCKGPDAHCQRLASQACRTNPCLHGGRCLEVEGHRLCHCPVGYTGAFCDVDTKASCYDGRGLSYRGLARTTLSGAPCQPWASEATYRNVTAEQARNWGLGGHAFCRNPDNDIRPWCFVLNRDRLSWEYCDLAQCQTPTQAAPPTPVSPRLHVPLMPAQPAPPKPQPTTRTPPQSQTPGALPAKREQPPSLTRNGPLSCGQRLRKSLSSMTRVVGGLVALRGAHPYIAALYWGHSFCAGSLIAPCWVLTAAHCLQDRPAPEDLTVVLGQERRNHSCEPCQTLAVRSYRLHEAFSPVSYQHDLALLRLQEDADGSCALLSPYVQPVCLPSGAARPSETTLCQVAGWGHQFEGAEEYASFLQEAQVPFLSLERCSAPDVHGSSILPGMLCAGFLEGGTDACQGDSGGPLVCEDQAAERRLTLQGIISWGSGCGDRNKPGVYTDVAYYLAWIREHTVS

[3] = target: 72 kDa type IV collagenase (Homo sapiens, UniProt P08253); experiment: Dose Response validation of uHTS RPN11 inhibitor hits using a MMP-2 Fluorescence assay.; format: functional
Sequence of 72 kDa type IV collagenase (P08253 whole entry): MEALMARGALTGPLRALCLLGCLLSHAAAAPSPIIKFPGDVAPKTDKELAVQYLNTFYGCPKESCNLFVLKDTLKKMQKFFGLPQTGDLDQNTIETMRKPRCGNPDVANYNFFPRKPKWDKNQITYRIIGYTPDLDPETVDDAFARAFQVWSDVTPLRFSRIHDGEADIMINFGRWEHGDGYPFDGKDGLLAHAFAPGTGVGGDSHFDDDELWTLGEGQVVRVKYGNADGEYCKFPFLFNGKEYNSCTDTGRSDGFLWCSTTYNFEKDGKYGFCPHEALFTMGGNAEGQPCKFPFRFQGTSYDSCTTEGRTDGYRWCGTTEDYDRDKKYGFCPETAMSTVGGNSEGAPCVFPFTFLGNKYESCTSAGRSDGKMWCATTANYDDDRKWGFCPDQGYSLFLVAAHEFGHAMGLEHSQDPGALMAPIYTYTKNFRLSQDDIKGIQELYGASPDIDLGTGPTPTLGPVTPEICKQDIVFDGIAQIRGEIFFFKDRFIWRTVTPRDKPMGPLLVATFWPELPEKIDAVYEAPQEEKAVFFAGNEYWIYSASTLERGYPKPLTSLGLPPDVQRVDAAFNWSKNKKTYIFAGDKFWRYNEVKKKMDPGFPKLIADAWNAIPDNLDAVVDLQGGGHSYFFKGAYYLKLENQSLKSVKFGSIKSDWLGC

[4] = target: Prothrombin (Bos taurus, UniProt P00735); experiment: thrombin protease inhibitors – biochemical, fluorescence polarization, uHTS hits, dose response (AID 602369); format: functional
[5] = target: 26S proteasome non-ATPase regulatory subunit 14 (Homo sapiens, UniProt O00487); experiment: inhibition of proteasome subunit RPN11 – biochemical, fluorescence polarization, uHTS hits, confirmation (AID 602368); format: functional
Sequence of 26S proteasome non-ATPase regulatory subunit 14 (O00487 whole entry): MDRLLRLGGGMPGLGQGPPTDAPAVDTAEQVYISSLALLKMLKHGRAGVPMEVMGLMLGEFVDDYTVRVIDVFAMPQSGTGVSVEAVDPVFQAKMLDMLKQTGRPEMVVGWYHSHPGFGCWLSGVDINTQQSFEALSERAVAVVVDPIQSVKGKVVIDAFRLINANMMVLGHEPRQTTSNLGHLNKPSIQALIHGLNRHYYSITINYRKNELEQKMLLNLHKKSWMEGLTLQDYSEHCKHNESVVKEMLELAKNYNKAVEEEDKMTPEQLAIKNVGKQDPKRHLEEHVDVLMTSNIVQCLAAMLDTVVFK

[6] = target: DNA (cytosine-5)-methyltransferase 1 (Homo sapiens, UniProt P26358); experiment: inhibition of DNA methylation by DNMT1 – biochemical, fluorescent molecular beacon, confirmation (AID 602386); format: functional
Sequence of DNA (cytosine-5)-methyltransferase 1 (P26358 whole entry): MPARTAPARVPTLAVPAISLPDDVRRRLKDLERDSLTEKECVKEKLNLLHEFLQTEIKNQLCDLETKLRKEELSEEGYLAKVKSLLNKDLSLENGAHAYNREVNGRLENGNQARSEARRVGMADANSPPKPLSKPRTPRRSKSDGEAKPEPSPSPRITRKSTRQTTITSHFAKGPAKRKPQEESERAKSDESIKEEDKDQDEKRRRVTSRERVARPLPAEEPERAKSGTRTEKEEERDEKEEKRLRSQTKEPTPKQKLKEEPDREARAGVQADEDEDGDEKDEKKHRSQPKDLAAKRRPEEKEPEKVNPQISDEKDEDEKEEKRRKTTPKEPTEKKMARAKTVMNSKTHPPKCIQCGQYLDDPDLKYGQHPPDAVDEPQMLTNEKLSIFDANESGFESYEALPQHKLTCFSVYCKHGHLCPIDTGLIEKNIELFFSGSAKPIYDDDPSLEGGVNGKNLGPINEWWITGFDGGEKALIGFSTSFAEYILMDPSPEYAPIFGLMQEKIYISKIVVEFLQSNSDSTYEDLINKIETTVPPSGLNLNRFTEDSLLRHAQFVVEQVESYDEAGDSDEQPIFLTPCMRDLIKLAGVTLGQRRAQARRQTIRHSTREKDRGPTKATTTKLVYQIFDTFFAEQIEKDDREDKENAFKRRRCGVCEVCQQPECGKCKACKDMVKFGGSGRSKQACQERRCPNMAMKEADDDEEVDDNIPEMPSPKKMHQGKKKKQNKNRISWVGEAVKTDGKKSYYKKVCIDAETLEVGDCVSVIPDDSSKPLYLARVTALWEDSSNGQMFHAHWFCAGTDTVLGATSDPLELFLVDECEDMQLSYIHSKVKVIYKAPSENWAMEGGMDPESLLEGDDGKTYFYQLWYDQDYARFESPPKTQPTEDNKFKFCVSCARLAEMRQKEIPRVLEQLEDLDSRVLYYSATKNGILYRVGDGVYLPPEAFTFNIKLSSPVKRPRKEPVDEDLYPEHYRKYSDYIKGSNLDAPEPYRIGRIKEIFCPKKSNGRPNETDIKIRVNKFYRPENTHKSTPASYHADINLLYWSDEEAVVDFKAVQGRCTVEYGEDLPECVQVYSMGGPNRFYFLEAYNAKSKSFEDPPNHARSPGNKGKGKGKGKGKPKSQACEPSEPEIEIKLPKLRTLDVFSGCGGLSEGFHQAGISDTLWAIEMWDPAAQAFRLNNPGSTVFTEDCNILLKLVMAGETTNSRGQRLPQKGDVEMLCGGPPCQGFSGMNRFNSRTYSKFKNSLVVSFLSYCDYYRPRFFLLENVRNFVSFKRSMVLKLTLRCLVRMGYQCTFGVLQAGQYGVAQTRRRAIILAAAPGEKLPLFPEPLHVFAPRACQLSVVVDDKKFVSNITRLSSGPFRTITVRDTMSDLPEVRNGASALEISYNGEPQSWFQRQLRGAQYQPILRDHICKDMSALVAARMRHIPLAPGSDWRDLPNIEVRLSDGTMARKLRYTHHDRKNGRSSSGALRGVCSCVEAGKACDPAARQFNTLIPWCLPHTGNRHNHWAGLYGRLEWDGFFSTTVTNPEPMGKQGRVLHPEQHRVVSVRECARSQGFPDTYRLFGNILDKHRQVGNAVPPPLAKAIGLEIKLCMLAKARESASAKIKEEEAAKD

[7] = NIH3T3 cell viability loss – ATP luminescence, mouse fibroblasts, counter-screen, dose response (AID 2010); format: functional, cell-based;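 note: cells exposed to compound for about 90 hours before reading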
[8] = tested on: Streptococcus sp. 'group A'; experiment: Streptococcus pyogenes SK(-)GAS viability under kanamycin – luminescence, BacTiterGlo, confirmation, counter-screen for streptokinase expression inhibitor project, dose response (AID 1900); format: functional, organism-based
[9] = tested on: BJ; experiment: BJ-TERT-LT-ST fibroblast viability loss – cell-based, RAS-independent, luminescence, dose response (AID 1935); format: functional; details: Homo sapiens;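 note: BJ fibroblasts immortalized with TERT plus LT and ST oncogenes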
[10] = tested on: BJ; experiment: cells; format: functional, cell-based; details: Homo sapiens
[11] = DRD fibroblast viability loss – cell-based, non-viral oncogenic, luminescence, dose response (AID 1934); format: functional; details: Homo sapiens
[12] = target: Nonstructural protein 1 (Influenza A virus, UniProt Q194T2); format: functional, Influenza A virus (A/California/07/2009(H1N1))
Sequence of Nonstructural protein 1 (Q194T2 whole entry): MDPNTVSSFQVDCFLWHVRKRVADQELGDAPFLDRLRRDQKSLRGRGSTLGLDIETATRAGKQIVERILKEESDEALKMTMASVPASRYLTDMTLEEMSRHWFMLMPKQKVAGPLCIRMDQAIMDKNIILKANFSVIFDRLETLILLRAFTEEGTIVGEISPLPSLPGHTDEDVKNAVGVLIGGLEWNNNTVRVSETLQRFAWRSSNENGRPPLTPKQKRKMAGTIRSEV

[13] = HEK-293T viability loss after treatment – luminescence, T-cell screen hits, cytotoxicity control for TCR NF-kB inhibitor project, dose response (AID 489026); format: functional, cell-based;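 note: cells exposed to compound about 14 hours before the viability readout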
[14] = tested on: INS1; experiment: INS-1E survival protection against cytokine death – cell-based, luminescence, retest, dose response (AID 449756); format: functional; details: Rattus norvegicus;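 note: cell death triggered by IL-1 beta plus TNF-alpha plus IFN-gamma mixture; protective hits raise ATP signal compared with cytokine alone wells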
[15] = Trypanosoma cruzi growth suppression in host cells – NIH3T3 host cells, beta-gal luminescence, confirmation (AID 2044); format: functional, cell-based;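 note: intracellular parasites grown in NIH/3T3 mouse fibroblasts as host cells; luminescent beta-galactosidase reporter signal from transgenic T. cruzi replicating inside host cells; inhibitors lower the luminescence signal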
[16] = tested on: BJ; experiment: BJ-TERT fibroblast viability loss – cell-based, RAS-independent, luminescence, dose response (AID 1933); format: functional; details: Homo sapiens
[17] = Luminescence-based dose response cell-based high throughput screening assay for cytotoxic compounds using the IEC-6 intestinal epithelial cell line. [Related pubchem assays: 1858 (Summary AID.), 1825 (Counterscreen.), 1907 (Confirmation screen.)]; format: functional
[18] = tested on: Streptococcus; experiment: GAS UMAA2166 growth inhibition – luminescence, BacTiterGlo, counter-screen for streptokinase expression inhibitor project, dose response (AID 1915); format: functional, organism-based;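 note: potency for reduction of bacterial viability or growth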
[19] = THP-1 cell cytotoxicity, dose response, cytotoxicity control for non-replicating M. tuberculosis project (AID 489025); format: functional
[20] = Vero E6 cell cytotoxicity, dose response, cytotoxicity control for non-replicating M. tuberculosis project, secondary assay (AID 492998); format: functional, VeroE6; details: Vero C1008
[21] = cells; format: functional

## COC(=O)CSc1nnc(-c2sc3cc(OC)ccc3c2Cl)n1C
[1]
  EC50: 0.531 µM (active)
[2]
  IC50: > 50 µM (inactive)

## COc1ccccc1-c1cc(C(=O)Nc2cc(C)nn2-c2ccccc2)no1
[3]
  IC50: > 100 µM (inactive)
[4]
  IC50: > 100 µM (inactive)
[5]
  IC50: 36 µM (active)

## COc1ccc(N2C(=O)C(Cl)=C(N3CCCC(C)C3)C2=O)cc1 (configuration not stated)
[2]
  IC50: > 50 µM (inactive)

## O=C(CNC(=O)c1ccc([N+](=O)[O-])cc1)N/N=C\c1ccc(OC(=O)c2ccccc2)cc1
[6]
  IC50: > 99 µM (inactive)

## C/C(=N\NC(=O)c1ccc(Cl)c(Cl)c1)c1ccccn1
[7]
  EC50: 0.656 µM (active)
[8]
  EC50: 0.099 µM (active)
[9]
  EC50: 0.674 µM (inconclusive)
[10]
  EC50: 1.37 µM (active)
[11]
  EC50: 1.01 µM (active)
[12]
  IC50: 3.03 µM (active)
[13]
  IC50: > 80 µM (inactive)
[14]
  AC50: 0.278 µM (active)
[15]
  EC50: 0.125 µM (active)
[16]
  EC50: 0.38 µM (inconclusive)
[17]
  IC50: 0.563 µM (active)
[18]
  EC50: 1.84 µM (active)

## Cc1nn(-c2cccc(Cl)c2)c(O)c1/C=N/n1c(C)nc2ccccc2c1=O
[19]
  CC50: 28.7 µM (active)
[20]
  CC50: > 20 µM (active)
[21]
  IC50: 45.1 µM (active)
